Reference: the NIST ThermoML archive (doi:10.1021/je2000205)
± gives the expanded uncertainty stated by the source.

Assay: mn = molality of the nth substance listed, in mol/kg
Settings: 100 kPa, Liquid; for viscosity: Capillary tube (Ostwald / Ubbelohde) method; for speed of sound: Sing-around technique in a fixed-path interferometer; for mass density: Vibrating tube method

Row | Compound | viscosity (298.15 K, m1 = 1.13) | speed of sound (298.15 K, m1 = 1.13) | viscosity (303.15 K, m1 = 1.13) | speed of sound (303.15 K, m1 = 1.13) | viscosity (308.15 K, m1 = 1.13) | speed of sound (308.15 K, m1 = 1.13) | viscosity (313.15 K, m1 = 1.13) | speed of sound (313.15 K, m1 = 1.13) | viscosity (318.15 K, m1 = 1.13) | speed of sound (318.15 K, m1 = 1.13) | viscosity (323.15 K, m1 = 1.13) | speed of sound (323.15 K, m1 = 1.13) | other results
1 | O=C[C@H](O)[C@@H](O)[C@H](O)[C@H](O)CO [D-glucose] + O | 1.489 ± 0.15 mPa·s | 1564.8 ± 1.4 m/s | 1.278 ± 0.13 mPa·s | 1574.3 ± 1.3 m/s | 1.147 ± 0.12 mPa·s | 1582.4 ± 1.3 m/s | 0.9944 ± 0.1 mPa·s | 1589.1 ± 1.3 m/s | 0.9095 ± 0.091 mPa·s | 1594.4 ± 1.3 m/s | 0.8291 ± 0.083 mPa·s | 1598.5 ± 1.4 m/s | mass density (298.15 K, m1 = 1.13): 1065.07 ± 0.12 kg/m3; mass density (303.15 K, m1 = 1.13): 1063.3 ± 0.11 kg/m3; mass density (308.15 K, m1 = 1.13): 1061.36 ± 0.1 kg/m3; mass density (313.15 K, m1 = 1.13): 1059.24 ± 0.1 kg/m3; mass density (318.15 K, m1 = 1.13): 1056.98 ± 0.1 kg/m3; mass density (323.15 K, m1 = 1.13): 1054.25 ± 0.12 kg/m3
2 | OC[C@H]1O[C@@](CO)(O[C@H]2O[C@H](CO)[C@@H](O)[C@H](O)[C@H]2O)[C@@H](O)[C@@H]1O [D-sucrose] + O | 2.716 ± 0.27 mPa·s | 1607.9 ± 1.4 m/s | 2.376 ± 0.24 mPa·s | 1615.6 ± 1.3 m/s | 2.075 ± 0.21 mPa·s | 1621.9 ± 1.3 m/s | 1.795 ± 0.18 mPa·s | 1627 ± 1.3 m/s | 1.587 ± 0.16 mPa·s | 1630.8 ± 1.3 m/s | 1.394 ± 0.14 mPa·s | 1633.3 ± 1.4 m/s | mass density (298.15 K, m1 = 1.27): 1127.37 ± 0.18 kg/m3; mass density (303.15 K, m1 = 1.27): 1125.37 ± 0.17 kg/m3; mass density (308.15 K, m1 = 1.27): 1123.2 ± 0.17 kg/m3; mass density (313.15 K, m1 = 1.27): 1120.73 ± 0.17 kg/m3; mass density (318.15 K, m1 = 1.27): 1118.18 ± 0.16 kg/m3; mass density (323.15 K, m1 = 1.27): 1115.44 ± 0.17 kg/m3
